For assay [1], the system named is human airway smooth muscle strips. In words: Organ bath force, acetylcholine-induced contractions of human airway smooth muscle strips after pretreatment. The conditions noted are these: 100 μM, separate blockade (alone). How it is done:
Human muscle tissue was acquired from excess lung airways trimmed during surgery from healthy lung transplant donors. Acquired tissue was stored overnight at 20° C. Airway smooth muscle contractions measured ex vivo in organ baths were performed as previously described (Gallos et al., 2008; Gallos et al., 2009, Gallos et al., 2011; Gleason et al., 2010; Yim et al., 2011; Mitzuta et al., 2008). Closed guinea pig tracheal rings or strips of human airway smooth muscle (tracheal or main stem bronchus) were suspended in organ baths, which had 95% oxygen constantly perfusing through Dulbecco's Modified Eagle Medium. Rings were cut on the cartilaginous borders of the smooth muscle. The epithelial layer was dissected under microscopic assistance. […]
Following equilibration, in guinea pig experiments, the capsaicin analog N-vanillylnonanamide (10 μM final) was added to the organ baths to first activate and then deplete nonadrenergic, noncholinergic nerves. […] To avoid bias between treatment groups, tissues were contracted to individually calculated EC50 values for acetylcholine and tissues with similar Emax values were randomly assigned to treatments within individual experiments. […]

The test system of assay [2] is human airway smooth muscle cells. The assay is described as follows: MQAE fluorescence assay of intracellular chloride. The format is cell-based. On the procedure: To determine whether blockade of CaCCs or NKCCs induce changes in intracellular chloride concentrations in human airway smooth muscle cells, the MQAE in vitro fluorescent dye assay (Invitrogen) was used. Briefly, human airway smooth muscle cells were grown to 100% confluence in 96-well black-walled plates. Cells were loaded overnight with 10 mM MQAE in serum-free basal cell culture medium (M199, Invitrogen) and were washed once with warmed (37° C.) normal-chloride buffer [consisting of (in mM) 130 sodium chloride, 2 CaCl2, 1 MgCl2, 10 D-glucose, and 10 HEPES, pH 7.4]. […] An increase in fluorescence represents decreased intracellular chloride (removal of halide quenching of MQAE) while decreased fluorescence represents increased intracellular chloride (enhanced halide quenching of MQAE).

Assay [3] has the same test system. The assay is described as follows: FLIPR membrane potentiometric dye assay (Example 21). The format is cell-based. On the procedure:
Immortalized airway smooth muscle cell lines modified to stably express human telomerase reverse transcriptase were a kind gift from Dr. William Gerthoffer (University of Southern Alabama, Mobile, Ala.) prepared as described previously (Gosens et al., 2006) and grown in Dulbecco's Modified Eagle's Medium/F12 media (GIBCO, Grand Island, N.Y.), with 10% FBS and antibiotics.
Immortalized human airway smooth muscle cells were cultured on black-walled 96 well plates to 100% confluence, and were washed four times with warmed (37° C.) assay buffer of the following composition (in mM): NaCl 140, KCl 4.7, CaCl2 2.5, MgCl2 1.2, HEPES 11, D-glucose 10. A stock solution (100% dye) of FLIPR blue dye was prepared by reconstitution of 1 vial (125 mg) with 100 ml assay buffer. A 50% working stock was prepared by further diluting the reconstituted blue dye 1:1 with assay buffer and was used to load cells (90 μl/well) over 45 min at 37° C. in a humidified cell culture incubator (95% air/5% CO2). All reagents were dissolved in assay buffer. Fluorescence was measured with a Flex Station 3 (Molecular Devices) using an excitation wavelength of 530 nm, emission wavelength of 565 nm and a cutoff filter of 550 nm. Baseline fluorescence was measured every 2 seconds for 1 minute then for 2 minutes after injection of vehicle or compound of interest as indicated (using the Flexstation's 3 integrated injection capabilities).
Human airway smooth muscle cells were incubated with FLIPR membrane potentiometric dye to assess if the chloride channel blockers changed membrane potential at the cellular level. FLIPR fluorescence will increase with depolarization, and decrease with hyperpolarization. […] Therefore, chloride channel blockade, but not NKCC blockade, hyperpolarized human airway smooth muscle cells.

We go through 2 molecules from US20140024683A1, “CHLORIDE CHANNEL AND CHLORIDE TRANSPORTER MODULATORS FOR THERAPY IN SMOOTH MUSCLE DISEASES” (priority 2011, published 2014).

As to `O=C(O)c1cccnc1Nc1cccc(C(F)(F)F)c1` [niflumic acid], the “effect on acetylcholine-induced contraction” value in assay [1] is reported as “does not significantly reduce contraction”. Besides, in assay [2] (100 μM niflumic acid), the “intracellular chloride (MQAE fluorescence)” value was “increases intracellular chloride”. Moreover, the “membrane potential, continuous fluorescence recording (representative tracing)” value in assay [3] was “hyperpolarize”. The “change in relative fluorescent units (membrane potential, FLIPR)” value in assay [3] (100 μM, n=12) is listed as −254.7+/−37 RFU.

In the case of `CCCCNc1cc(C(=O)O)cc(S(N)(=O)=O)c1Oc1ccccc1` [bumetanide], the “effect on acetylcholine-induced contraction” value in assay [1] is on record as “does not significantly reduce contraction”. In addition, the “intracellular chloride (MQAE fluorescence)” value in assay [2] (10 μM bumetanide) was “impairs chloride entry”; in assay [2] (10 μM bumetanide, listed as Bumetanide), “decreases [Cl^−]i”. For the same molecule, the “change in membrane potential (FLIPR)” value in assay [3] (10 μM bumetanide) is given as “did not cause a significant change”.
